Test results taken from ChEMBL document CHEMBL5653615 (J Biol Chem, 2013).

Columns and labels:
[1] = biological target: Serine/threonine-protein kinase PAK 3 (Homo sapiens) (UniProt O75914); test: Inhibition of human PAK3 at 18.6 nM by HotSpot assay relative to control
[2] = biological target: T1, Tyrosine-protein kinase Mer (Homo sapiens) (UniProt Q12866); test: Inhibition of human c-MER at 18.6 nM by HotSpot assay relative to control
T1 sequence (whole entry): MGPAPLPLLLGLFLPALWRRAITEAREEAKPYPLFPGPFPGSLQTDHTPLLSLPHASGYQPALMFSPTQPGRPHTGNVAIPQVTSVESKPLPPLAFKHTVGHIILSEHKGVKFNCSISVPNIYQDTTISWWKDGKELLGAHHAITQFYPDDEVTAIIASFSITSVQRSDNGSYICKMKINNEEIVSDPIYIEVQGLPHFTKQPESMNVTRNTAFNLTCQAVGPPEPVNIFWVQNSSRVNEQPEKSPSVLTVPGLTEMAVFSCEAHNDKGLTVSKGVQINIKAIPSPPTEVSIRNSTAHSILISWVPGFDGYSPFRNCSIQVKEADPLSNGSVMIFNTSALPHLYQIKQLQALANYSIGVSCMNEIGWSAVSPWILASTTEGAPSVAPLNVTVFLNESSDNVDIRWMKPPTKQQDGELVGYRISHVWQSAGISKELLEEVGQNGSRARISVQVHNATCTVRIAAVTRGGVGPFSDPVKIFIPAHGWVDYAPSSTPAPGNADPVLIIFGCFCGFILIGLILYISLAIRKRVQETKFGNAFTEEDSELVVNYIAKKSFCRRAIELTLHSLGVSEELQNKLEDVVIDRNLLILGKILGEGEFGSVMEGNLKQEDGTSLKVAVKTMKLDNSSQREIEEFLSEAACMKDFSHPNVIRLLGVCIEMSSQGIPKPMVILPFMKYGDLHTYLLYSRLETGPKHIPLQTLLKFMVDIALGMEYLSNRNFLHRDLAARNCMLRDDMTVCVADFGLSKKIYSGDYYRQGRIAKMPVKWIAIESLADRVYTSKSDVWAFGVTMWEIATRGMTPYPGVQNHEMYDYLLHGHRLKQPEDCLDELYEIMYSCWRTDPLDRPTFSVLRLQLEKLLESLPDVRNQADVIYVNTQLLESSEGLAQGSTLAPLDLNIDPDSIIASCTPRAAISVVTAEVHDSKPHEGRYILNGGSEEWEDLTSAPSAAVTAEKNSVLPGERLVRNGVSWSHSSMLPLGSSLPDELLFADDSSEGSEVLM

[3] = biological target: CDK1/Cyclin A (Homo sapiens) (UniProt P06493+P20248); test: Inhibition of human CDK1/cyclin A at 1.82 nM by HotSpot assay relative to control; format: protein-complex assay
[4] = biological target: CDK9/Cyclin K (Homo sapiens) (UniProt P50750+O75909); test: Inhibition of human CDK9/cyclin K at 1.82 nM by HotSpot assay relative to control; format: protein-complex assay
[5] = biological target: RAC-alpha serine/threonine-protein kinase (Homo sapiens) (UniProt P31749); test: Inhibition of human AKT1 at 1.82 nM by HotSpot assay relative to control
[6] = biological target: Serine/threonine-protein kinase SIK2 (Homo sapiens) (UniProt Q9H0K1); test: Inhibition of human SIK2 at 1.82 nM by HotSpot assay relative to control
[7] = biological target: Ribosomal protein S6 kinase beta-1 (Homo sapiens) (UniProt P23443); test: Inhibition of human RPS6KB1 at 1.82 nM by HotSpot assay relative to control
[8] = biological target: Ephrin type-A receptor 5 (Homo sapiens) (UniProt P54756); test: Inhibition of human EPHA5 at 1.82 nM by HotSpot assay relative to control
[9] = biological target: T2, Ephrin type-A receptor 1 (Homo sapiens) (UniProt P21709); test: Inhibition of human EPHA1 at 1.82 nM by HotSpot assay relative to control
T2 sequence (whole entry): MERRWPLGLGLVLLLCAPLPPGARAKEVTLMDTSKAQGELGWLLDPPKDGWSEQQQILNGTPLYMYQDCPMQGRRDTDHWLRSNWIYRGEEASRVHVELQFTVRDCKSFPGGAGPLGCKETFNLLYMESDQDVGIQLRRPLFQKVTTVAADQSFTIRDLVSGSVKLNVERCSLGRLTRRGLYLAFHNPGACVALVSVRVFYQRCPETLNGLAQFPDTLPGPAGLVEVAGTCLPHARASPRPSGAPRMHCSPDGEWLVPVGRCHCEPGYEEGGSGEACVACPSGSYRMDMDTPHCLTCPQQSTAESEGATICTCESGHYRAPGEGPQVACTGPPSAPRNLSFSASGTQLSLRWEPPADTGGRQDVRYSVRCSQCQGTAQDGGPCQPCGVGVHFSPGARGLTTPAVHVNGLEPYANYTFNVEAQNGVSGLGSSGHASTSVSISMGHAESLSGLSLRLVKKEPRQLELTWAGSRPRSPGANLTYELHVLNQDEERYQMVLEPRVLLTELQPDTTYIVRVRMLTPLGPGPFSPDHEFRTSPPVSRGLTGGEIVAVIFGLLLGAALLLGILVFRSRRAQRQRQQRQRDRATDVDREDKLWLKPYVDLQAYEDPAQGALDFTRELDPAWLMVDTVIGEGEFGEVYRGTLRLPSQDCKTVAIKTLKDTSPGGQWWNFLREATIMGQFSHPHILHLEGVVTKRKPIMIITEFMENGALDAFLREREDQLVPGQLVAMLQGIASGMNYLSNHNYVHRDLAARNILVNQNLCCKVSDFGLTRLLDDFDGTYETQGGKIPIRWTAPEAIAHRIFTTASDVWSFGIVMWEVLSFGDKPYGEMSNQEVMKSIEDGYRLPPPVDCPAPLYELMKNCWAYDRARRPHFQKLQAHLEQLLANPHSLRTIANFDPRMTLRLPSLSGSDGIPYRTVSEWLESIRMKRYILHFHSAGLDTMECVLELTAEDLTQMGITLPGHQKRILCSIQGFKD

[10] = biological target: T3, Serine/threonine-protein kinase 4 (Homo sapiens) (UniProt Q13043); test: Inhibition of human STK4 at 1.82 nM by HotSpot assay relative to control
T3 sequence (whole entry): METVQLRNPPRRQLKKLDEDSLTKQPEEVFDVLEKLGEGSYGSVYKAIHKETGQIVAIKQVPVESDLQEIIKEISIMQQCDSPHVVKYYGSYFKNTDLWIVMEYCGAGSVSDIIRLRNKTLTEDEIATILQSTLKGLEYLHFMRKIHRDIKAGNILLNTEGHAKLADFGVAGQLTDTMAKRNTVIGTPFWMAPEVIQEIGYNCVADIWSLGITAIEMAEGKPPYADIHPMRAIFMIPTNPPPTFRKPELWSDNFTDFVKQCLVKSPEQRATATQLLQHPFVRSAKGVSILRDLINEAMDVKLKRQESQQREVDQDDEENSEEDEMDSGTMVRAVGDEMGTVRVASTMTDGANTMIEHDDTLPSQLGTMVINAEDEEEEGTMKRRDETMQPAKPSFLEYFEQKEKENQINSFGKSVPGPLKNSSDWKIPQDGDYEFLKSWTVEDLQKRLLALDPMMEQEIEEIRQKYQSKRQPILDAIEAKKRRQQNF

Sequence of CDK1/Cyclin A (Homo sapiens) (P06493 whole entry, looked up): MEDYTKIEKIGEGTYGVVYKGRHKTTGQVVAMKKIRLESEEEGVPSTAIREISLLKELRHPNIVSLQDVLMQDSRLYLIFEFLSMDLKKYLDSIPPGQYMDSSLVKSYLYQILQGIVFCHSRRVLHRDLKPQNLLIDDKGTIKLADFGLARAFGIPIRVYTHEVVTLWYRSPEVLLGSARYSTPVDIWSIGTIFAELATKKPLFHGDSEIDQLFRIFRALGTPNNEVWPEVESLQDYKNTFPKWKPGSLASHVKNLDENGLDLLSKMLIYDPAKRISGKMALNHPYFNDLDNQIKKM
Sequence of CDK1/Cyclin A (Homo sapiens) (P20248 whole entry, looked up): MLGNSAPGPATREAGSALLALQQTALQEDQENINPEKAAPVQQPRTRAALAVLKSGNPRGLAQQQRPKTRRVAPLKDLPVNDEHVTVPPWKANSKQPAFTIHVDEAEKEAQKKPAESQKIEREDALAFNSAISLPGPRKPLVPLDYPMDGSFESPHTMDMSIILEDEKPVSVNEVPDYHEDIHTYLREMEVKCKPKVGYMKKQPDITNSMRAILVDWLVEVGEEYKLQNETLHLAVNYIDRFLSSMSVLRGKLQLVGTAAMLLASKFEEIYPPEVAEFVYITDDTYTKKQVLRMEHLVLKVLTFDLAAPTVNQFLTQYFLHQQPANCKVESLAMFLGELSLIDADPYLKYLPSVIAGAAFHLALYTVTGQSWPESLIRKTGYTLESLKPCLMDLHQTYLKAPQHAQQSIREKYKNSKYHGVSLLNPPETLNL
Sequence of Serine/threonine-protein kinase PAK 3 (Homo sapiens) (O75914 whole entry, looked up): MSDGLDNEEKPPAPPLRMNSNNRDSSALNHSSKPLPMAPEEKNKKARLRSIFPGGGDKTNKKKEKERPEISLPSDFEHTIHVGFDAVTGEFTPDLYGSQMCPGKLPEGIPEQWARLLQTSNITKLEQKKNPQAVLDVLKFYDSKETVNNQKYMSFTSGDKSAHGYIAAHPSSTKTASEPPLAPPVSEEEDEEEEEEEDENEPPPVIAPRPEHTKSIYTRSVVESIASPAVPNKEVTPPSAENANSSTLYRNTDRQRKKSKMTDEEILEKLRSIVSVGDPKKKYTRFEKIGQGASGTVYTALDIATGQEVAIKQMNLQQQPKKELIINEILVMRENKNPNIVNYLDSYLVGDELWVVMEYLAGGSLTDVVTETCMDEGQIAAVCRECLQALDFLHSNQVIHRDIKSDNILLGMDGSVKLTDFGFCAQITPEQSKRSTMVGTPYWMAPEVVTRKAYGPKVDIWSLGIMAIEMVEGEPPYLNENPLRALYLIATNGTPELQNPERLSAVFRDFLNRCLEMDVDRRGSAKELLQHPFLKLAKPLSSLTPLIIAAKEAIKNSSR
Sequence of Ribosomal protein S6 kinase beta-1 (Homo sapiens) (P23443 whole entry, looked up): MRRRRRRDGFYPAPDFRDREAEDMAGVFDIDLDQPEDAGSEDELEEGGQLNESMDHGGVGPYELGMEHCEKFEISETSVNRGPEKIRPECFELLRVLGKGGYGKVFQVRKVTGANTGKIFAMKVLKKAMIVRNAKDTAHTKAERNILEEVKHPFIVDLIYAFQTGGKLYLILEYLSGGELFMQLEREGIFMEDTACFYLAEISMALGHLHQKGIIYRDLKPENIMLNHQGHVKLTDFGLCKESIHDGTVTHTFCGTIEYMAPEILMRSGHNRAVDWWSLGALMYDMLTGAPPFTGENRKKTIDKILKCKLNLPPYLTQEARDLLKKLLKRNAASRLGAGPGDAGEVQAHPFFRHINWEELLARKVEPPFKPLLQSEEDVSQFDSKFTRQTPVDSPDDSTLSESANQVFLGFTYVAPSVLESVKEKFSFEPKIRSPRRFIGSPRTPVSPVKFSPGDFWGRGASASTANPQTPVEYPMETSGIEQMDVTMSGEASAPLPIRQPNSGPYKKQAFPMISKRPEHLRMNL
Sequence of RAC-alpha serine/threonine-protein kinase (Homo sapiens) (P31749 whole entry): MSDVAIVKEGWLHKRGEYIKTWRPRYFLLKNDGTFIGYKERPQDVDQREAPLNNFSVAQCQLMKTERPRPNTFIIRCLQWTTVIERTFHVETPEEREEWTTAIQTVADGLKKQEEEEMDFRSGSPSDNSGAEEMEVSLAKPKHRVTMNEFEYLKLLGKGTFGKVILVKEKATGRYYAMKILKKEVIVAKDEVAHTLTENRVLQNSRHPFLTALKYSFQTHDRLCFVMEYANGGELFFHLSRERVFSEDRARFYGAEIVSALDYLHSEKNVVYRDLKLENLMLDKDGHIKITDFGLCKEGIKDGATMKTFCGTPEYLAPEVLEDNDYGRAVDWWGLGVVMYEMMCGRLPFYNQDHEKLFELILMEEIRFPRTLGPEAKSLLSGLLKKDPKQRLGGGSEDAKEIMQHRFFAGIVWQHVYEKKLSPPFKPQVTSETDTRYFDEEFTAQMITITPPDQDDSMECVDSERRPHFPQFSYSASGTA
Sequence of Ephrin type-A receptor 5 (Homo sapiens) (P54756 whole entry): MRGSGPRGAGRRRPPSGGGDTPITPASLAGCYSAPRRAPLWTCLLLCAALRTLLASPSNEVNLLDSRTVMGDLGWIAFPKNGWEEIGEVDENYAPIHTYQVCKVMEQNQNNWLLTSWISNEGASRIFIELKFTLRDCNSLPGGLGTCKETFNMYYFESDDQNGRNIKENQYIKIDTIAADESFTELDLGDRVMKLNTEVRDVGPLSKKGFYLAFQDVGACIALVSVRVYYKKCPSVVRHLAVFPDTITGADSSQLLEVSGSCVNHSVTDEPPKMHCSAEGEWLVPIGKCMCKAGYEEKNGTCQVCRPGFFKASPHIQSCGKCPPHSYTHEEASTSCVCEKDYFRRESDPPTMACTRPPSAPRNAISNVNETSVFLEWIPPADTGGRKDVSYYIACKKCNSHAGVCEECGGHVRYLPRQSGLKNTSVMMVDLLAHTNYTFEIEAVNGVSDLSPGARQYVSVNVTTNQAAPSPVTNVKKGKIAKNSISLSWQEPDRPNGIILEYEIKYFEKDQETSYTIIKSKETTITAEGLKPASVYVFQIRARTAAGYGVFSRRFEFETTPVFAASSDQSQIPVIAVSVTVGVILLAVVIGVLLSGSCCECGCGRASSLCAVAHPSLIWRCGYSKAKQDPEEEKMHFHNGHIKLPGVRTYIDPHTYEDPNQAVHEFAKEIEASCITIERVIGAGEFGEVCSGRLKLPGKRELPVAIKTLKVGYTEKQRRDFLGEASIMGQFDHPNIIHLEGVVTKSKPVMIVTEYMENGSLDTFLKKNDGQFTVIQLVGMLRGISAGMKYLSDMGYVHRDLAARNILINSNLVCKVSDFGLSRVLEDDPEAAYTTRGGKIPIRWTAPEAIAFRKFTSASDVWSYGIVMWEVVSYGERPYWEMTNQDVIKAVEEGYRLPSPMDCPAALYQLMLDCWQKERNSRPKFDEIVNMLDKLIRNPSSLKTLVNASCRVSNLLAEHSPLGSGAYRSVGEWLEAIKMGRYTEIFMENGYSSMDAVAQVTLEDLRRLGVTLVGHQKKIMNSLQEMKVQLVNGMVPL
Sequence of Serine/threonine-protein kinase SIK2 (Homo sapiens) (Q9H0K1 whole entry, looked up): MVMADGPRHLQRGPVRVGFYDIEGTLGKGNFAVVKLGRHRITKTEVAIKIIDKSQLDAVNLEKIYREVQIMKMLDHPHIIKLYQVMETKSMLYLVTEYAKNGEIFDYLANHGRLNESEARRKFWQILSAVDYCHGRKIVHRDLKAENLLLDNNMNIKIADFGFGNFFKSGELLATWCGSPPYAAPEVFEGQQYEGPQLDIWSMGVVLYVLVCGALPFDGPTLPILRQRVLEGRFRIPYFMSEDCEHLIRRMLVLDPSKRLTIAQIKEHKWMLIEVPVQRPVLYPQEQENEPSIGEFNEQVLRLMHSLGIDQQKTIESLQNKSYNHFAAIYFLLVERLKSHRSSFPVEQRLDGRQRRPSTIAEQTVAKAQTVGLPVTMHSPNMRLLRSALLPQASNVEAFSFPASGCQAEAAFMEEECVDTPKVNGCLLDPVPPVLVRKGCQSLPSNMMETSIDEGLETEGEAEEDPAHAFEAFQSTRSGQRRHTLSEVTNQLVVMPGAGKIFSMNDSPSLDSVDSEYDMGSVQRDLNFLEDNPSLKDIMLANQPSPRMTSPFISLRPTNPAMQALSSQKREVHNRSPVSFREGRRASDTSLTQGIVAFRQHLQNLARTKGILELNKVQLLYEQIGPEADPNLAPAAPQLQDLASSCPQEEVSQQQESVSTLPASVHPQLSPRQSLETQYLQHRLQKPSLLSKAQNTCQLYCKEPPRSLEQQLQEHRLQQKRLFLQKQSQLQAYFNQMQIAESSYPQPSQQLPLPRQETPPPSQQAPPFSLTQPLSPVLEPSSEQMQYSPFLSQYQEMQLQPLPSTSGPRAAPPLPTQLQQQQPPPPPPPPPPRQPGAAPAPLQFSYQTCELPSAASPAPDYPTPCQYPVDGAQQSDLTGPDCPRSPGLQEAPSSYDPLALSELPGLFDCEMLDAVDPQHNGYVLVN

Row | SMILES | inhibition [1] | inhibition [2] | inhibition [3] | inhibition [4] | inhibition [5] | inhibition [6] | inhibition [7] | inhibition [8] | inhibition [9] | inhibition [10]
1 | C[C@]1(O)C[C@@H](c2nc(-c3ccc4ccc(-c5ccccc5)nc4c3)c3c(N)nccn32)C1 | 2.16% | -0.54% | – | – | – | – | – | – | – | –
2 | C[C@@]1(C(=O)Nc2ccc(F)nc2)CCCN1c1nc(Nc2cc(C3CC3)n[nH]2)c2cccn2n1 | – | – | -1.79% | 4.72% | 1.89% | -6.97% | -5.56% | -1.69% | -4.67% | 9.85%
